Consider one compound from patent US6432995B1, “Aromatic heterocyclic compounds and their use as anti-inflammatory agents” (Boehringer Ingelheim Pharmaceuticals, Inc., priority 1997, dated 2002).

Broadly, the melting point is the temperature, or range, at which the solid turns liquid. Regarding `Cc1ccc(-n2nc(C(C)(C)C)cc2NC(=O)Nc2ccc(F)cc2)cc1C` [Example 32, 1-(5-tert-Butyl-2-(3,4-dimethylphenyl)-2H-pyrazol-3-yl)-3-(4-fluorophenyl)urea], the melting point lay in the range of 223 to 225 °C.
